Where two headings read alike, the source gives them in different places.
What was measured:
Type in all cases: in vivo
Phaedon cochleariae = system: Phaedon cochleariae
Source text: (§1) If the actual insecticidal or acaricidal kill rate exceeds the calculated value, the kill of the combination is superadditive, i.e. a synergistic effect is present. In this case, the actually observed kill rate must exceed the value calculated using the above formula for the expected kill rate (E).
(§2) • Solvents: 78 parts by weight of acetone 1.5 parts by weight of dimethylformamide • Emulsifier: 0.5 part by weight of alkylaryl polyglycol ether
After the desired period of time, the kill in % is determined 100% means that all beetle larvae have been killed; 0% means that none of the beetle larvae have been killed. The kill rates determined are entered into Colby's formula (see above).

Myzus persicae = conditions: 0.8 g/ha, single active compound
Source text: as §1, §2
After the desired period of time, the kill in % is determined 100% means that all of the aphids have been killed; 0% means that none of the aphids have been killed. The kill rates determined are entered into Colby's formula (see above).

Spodoptera frugiperda = Spodoptera frugiperda test (sprayed cabbage leaves); conditions: single active compound
Source text: The expected action for a given combination of two active compounds can be calculated according to S. R. Colby, Weeds 15 (1967), 20-22, as follows:
as §1, §2
To produce a suitable preparation of active compound, 1 part by weight of active compound is mixed with the stated amount of solvent and emulsifier, and the concentrate is diluted with emulsifier-containing water to the desired concentration.
Cabbage leaves (Brassica oleracea) are treated by being sprayed with the preparation of active compound of the desired concentration and are populated with larvae of the armyworm (Spodoptera frugiperda) while the leaves are still moist.
After the desired period of time, the kill in % is determined 100% means that all caterpillars have been killed; 0% means that none of the caterpillars have been killed. The kill rates determined are entered into Colby's formula (see above).

[1] = 20 g/ha, after 6 d, single active compound
[2] = 100 g/ha, after 6 d, single active compound
[3] = 20 g/ha, single active compound
[4] = 4 g/ha, after 6 d, single active compound

| Compound | Kill In % after 6d (Phaedon cochleariae; [1]) [%] | Kill In % after 6d (Phaedon cochleariae; [2]) [%] | Kill in % after 6 d (Myzus persicae) [%] | Kill In % after 2d (Phaedon cochleariae; 4 g/ha, single active compound) [%] | Kill In % after 2d (Phaedon cochleariae; [3]) [%] | Kill in % after 6 d (Spodoptera frugiperda; 4 g/ha) [%] | Kill in % after 6 d (Spodoptera frugiperda; 20 g/ha) [%] | also measured |
| --- | --- | --- | --- | --- | --- | --- | --- | --- |
| COP(=O)(NC(C)=O)SC (stereo not drawn) [acephate] | 0 | 0 | 0 |  |  |  |  |  |
| CCOP(=S)(OCC)Oc1nc(Cl)c(Cl)cc1Cl [chlorpyriphos, chlorpyrifos] |  |  |  | 0 | 50 | 67 |  |  |
| O=C1C=C(N(CCF)Cc2ccc(Cl)nc2)CO1 [compound (I-4), 4-{[(6-chloropyrid-3-yl)methyl](2-fluoroethyl)amino}furan-2(5H)-one] |  | 50 |  | 0 |  |  | 0 | Kill In % after 6d (Phaedon cochleariae; [4]): 0%; Kill In % after 2d (Phaedon cochleariae; 100 g/ha, single active compound): 50%; Kill in % after 1d (Myzus persicae): 20% |
| O=C1C=C(N(Cc2ccc(Cl)nc2)CC(F)F)CO1 [compound (I-5), 4-{[(6-chloropyrid-3-yl)methyl](2,2-difluoroethyl)amino}furan-2(5H)-one] |  | 67 |  |  | 17 | 0 |  | Kill In % after 6d (Phaedon cochleariae; [4]): 0% |
| CN(Cc1cnc(Cl)c(F)c1)C1=CC(=O)OC1 [compound (I-6), 4-{[(6-chloro-5-fluoropyrid-3-yl)methyl](methyl)amino}furan-2(5H)-one] | 17 |  | 80 |  | 0 | 0 | 0 |  |
| CCCSP(=O)(OCC)SCCC [ethoprofos, ethoprophos] |  |  |  |  |  |  |  | Kill In % after 6d (Phaedon cochleariae; in vivo): 0% |
| CCOP(=O)(NC(C)C)Oc1ccc(SC)c(C)c1 (stereo not drawn) [fenamiphos] |  |  | 0 |  |  |  |  |  |
| COP(N)(=O)SC (stereo not drawn) [methamidophos] |  |  | 0 |  |  |  | 67 |  |
| CS/C(C)=N/OC(=O)N(C)SN(C)C(=O)O/N=C(\C)SC [thiodicarb] | 0 | 0 | 0 |  |  | 50 | 83 | Kill in % after 1d (Myzus persicae): 0% |
| methiocarb |  |  | 0 | 17 |  |  |  |  |

— patent US8846567B2, “Active compound combinations having insecticidal and acaricidal properties” (priority 2009, dated 2014)
